Data taken from patent publication US7223733B2, “Modulation of TRIP-Br function and method of treating proliferative disorders” (National University of Singapore, priority 2004, dated 2007).
Where no end group is shown, it is not given here.

Legend:
PARP cleavage = assay: Western blot analysis of PARP cleavage in U2OS cells; type: cell-based, human; details: 50 μM decoy peptides, 72 h
Experimental: Denaturing SDS-PAGE and western blotting. Proteins from whole cell lysate and IP complexes were separated using standard denaturing polyacrylamide gel electrophoresis as described previously (Hsu, S. I. H., et al. EMBO J 20, 2273-2285 (2001)).
FIG. 6: Caspase assay. (A) Caspase 3 protease activity in U2OS cells exposed to either Eto (Etoposide) for 24 h or 50 μM decoy peptides for 48 or 72 h, were assayed using the Ac-DEVD-AFC fluorogenic substrate. […] Values represent the average +/− standard deviation of two independent experiments. Control: cells cultured in normal growth medium; Vehicle: cells cultured in the presence of 0.5% DMSO; (B) Western blot analysis of PARP cleavage. U2OS cells were exposed to either Eto (Etoposide) for 24 h or 50 μM decoy peptides for 72 h. Lane 1: Vehicle cells (cultured in the presence of 0.5% DMSO for 24 h); Lane 2: 25 μM Eto; Lane 3: 250 μM Eto; Lane 4: Vehicle (cells cultured in the presence of 0.5% DMSO for 72 h); Lane 5: *SCR; Lane 6: *Br1; Lane 7: *Br2.

Fbxw7 mRNA = assay: Semi-quantitative RT-PCR of Fbxw7 in U2OS cells; type: cell-based, human; details: U2OS, 5, 10 or 20 μM
Experimental: Semi-quantitative RT-PCR. Total RNA was isolated from U2OS cells or U2OS-ER-E2F-1 cells (grown with or without 1.0 μM OHT and/or 10 μg/ml cycloheximide) using the TRIZOL® Reagent (Life Technologies). Total RNA (4 μg) was reverse transcribed using oligo-dT and M-MLV reverse transcriptase in a total reaction volume of 20 μl. Polymerase Chain Reactions (PCR) were carried out on 3 μl cDNA samples in the presence of […] deoxyribonucleotide triphosphates (dNTPs) and 40 μM of specific primer pairs in a total reaction volume of 50 μ. The cycling profile for PCR was as follow: 30 cycles of denaturation (94° C., 30 sec), annealing (51° C., 30 sec) and extension (72° C., 2 min), with a 2-minute initial denaturation step at 94° C. and a 10-minute terminal polishing step at 72° C. Sequences of gene-specific primers are available upon request. PCR amplification products were analyzed by agarose gel electrophoresis.
FIG. 8: The role(s) of the TRIP-Br integrator function in cyclin E regulation. […] U2OS cells exposed to 5, 10 or 20 μM of decoy peptides were analyzed for Fbxw7 mRNA transcript levels by semi-quantitative RT-PCR. H-actin was co-amplified as an internal control; (C) cyclin-E and Fbxw7 expression was analyzed by semi-quantitative RT-PCR using total RNA from sub-confluent U2OS ER-E2F-1 cells grown with or without OHT and/or cycloheximide (CHX) for 2 h as indicated. […]

CNE2 tumor = assay: Chick embryo chorioallantoic membrane (CAM) tumor xenograft model; type: in vivo; details: 50 μM topically, daily; p<0.05
Description: Cell lines. Human nasopharyngeal cancer cell line CNE2 and human melanoma cell line Mewo were used for tumor inoculation.
Chicken embryo CAM preparation. To apply cells onto the CAM of 10-day old chick embryos, a 2-cm diameter wide window was opened in the flat pole of the eggshell with an electric drill equipped with a 0.3-mm thick×22-mm diameter Carborundum disc. The shell window was removed with forceps. The inner shell membrane was carefully punctured with a fine sterile forcep and removed to expose the underlying CAM. A small portion of the CAM was then gently traumatized by laying a strip of lens tissue (1-cm wide) on the surface of the CAM and then removing it immediately.
Inoculation, closure & incubation. The inoculum (1×10^6 cells/egg for CNE2 cell line and 3×10^6 cells/egg for Mewo cell line in 50 μl of blank medium) was applied onto the small patch of traumatized CAM. Following inoculation, the window was covered with a 35 mm tissue culture dish and sealed with scotch tape. The embryos were returned to the incubator in an upright position and allowed to incubate for seven additional days, with daily monitoring.
Peptide treatment & assessment of growth inhibitory effects. The treatment was initiated two days after tumor inoculation.
The eggs were randomized into 4 treatment groups, with each group comprising at least 4 biological replicates. […]

| Sequence | PARP cleavage compared to vehicle or *SCR-treated control (PARP cleavage) | expression level of Fbxw7 mRNA (Fbxw7 mRNA) | growth of CNE2 tumor (tumour weight) (CNE2 tumor) |
| --- | --- | --- | --- |
| ERQIKIWFQNRRMKWKKTGFLTDLTLDDILFADID (ERQIKIWFQNRRMKWKKTGFLTDLTLDDILFADID-NH2) [*Br2] | not associated with significant PARP cleavage | down-regulated the expression level of Fbxw7 in a dose-dependent fashion | significantly inhibited the growth of CNE2 tumor |
| ERQIKIWFQNRRMKWKKATGCLLDDGLEGLFEDID (ERQIKIWFQNRRMKWKKATGCLLDDGLEGLFEDID-NH2) [*Br1] | not associated with significant PARP cleavage | down-regulated the expression level of Fbxw7 in a dose-dependent fashion | significantly inhibited the growth of CNE2 tumor |
